Measurements reported in patent EP2647634A1, “Indole-pyrimidine derivatives and their therapeutic uses” (NOSCIRA, S.A., priority 2012, dated 2013).

Target: T1, Human recombinant Cdk5/p35 heterodimer (Homo sapiens, UniProt Q00535)
T1 construct: purchased Life Technologies
Experiment: Cdk5 assay (luminescent detection of ADP, ADP Glo)
Assay type: biochemical
Conditions: 10 nM enzyme, 10 µM ATP, 2 µM histone H1, 40 min incubation
Method: (§1) The enzymatic activity of Cdk5 is determined with a commercial system, available from Promega (Madison, WI, USA) based on the luminescent detection of ADP, the byproduct of the kinase reaction. Human recombinant Cdk5/p35 heterodimer (purchased from Life Technologies, Carlsbad, CA, USA) is used as the enzyme source. At the end of the enzymatic reaction the remaining ATP is destroyed and afterwards the ADP produced during the kinase reaction is converted into ATP, which is further converted into light using a suitable luciferase. Therefore, the luminescent signal positively correlates with kinase activity. The assay is performed in 96-well conical bottom black plates, in a final volume of 12 µl with 10 nM enzyme concentration in 40 mM Tris-HCl pH 7.4, 20 mM MgCl2 and 0.01% bovine serum albumin using 10 µM ATP and 2 µM substrate. […] The assay is carried out in the presence of different concentrations of the tested compound, at a final 1% (v/v) DMSO concentration. After a 40 min incubation, at room temperature, 12 µl of a commercial "ADP Glo" solution (from Promega) is added to remove the remaining ATP and a subsequent 40 min incubation at room temperature is performed before adding 24 µl of a suitable "detection reagent" (also supplied by Promega) needed to carry out the transformation of ADP into ATP and its conversion into light by the luciferase enzyme included in the reagent. After a final 30 min incubation at room temperature luminescence is monitored in a suitable plate reader. […] For that purpose the data were fitted to a version of the classical 4-parameters isotherm equation using the nonlinear regression function of GraphPad™ Prism 5.0 (GraphPad Software Inc.).

T1 sequence (Q00535 whole entry): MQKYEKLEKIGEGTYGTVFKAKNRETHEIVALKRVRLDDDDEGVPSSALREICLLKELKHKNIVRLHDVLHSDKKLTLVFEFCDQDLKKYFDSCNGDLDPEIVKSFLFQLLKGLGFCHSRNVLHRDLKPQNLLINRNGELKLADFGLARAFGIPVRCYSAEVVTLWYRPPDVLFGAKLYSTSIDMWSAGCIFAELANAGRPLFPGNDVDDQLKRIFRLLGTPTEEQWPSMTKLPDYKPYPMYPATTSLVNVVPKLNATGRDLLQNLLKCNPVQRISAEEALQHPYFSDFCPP
T1 sequence (Q15078 whole entry partner): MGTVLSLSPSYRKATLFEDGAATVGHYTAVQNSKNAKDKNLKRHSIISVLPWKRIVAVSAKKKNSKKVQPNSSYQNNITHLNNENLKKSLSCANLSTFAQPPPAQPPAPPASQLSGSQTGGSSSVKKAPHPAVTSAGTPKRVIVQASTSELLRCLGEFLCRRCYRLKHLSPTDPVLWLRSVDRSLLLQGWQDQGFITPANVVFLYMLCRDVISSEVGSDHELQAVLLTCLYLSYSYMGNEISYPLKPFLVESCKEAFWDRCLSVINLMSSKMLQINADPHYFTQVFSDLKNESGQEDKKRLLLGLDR

| SMILES | Cdk5 inhibition pEC50 average |
| --- | --- |
| Nc1nccc(-c2c(O)[nH]c3ccccc23)n1 [Compound 1, 3-(2-Amino-4-pyrimidinyl)-2-oxoindole] | 8.2 |
| CS(=O)(=O)c1ccc2c(-c3ccnc(N)n3)c(O)[nH]c2c1 [Compound 2, 3-(2-Amino-4-pyrimidinyl) -6-methanesulfonyl-2-oxoindole] | 6.7 |
| Nc1nccc(-c2c(O)[nH]c3ccc(Br)cc23)n1 [Compound 3, 3-(2-Amino-4-pyrimidinyl)-5-Bromo-2-oxoindole] | 8.3 |
| Nc1nccc(-c2c(O)[nH]c3ccc(F)cc23)n1 [Compound 4, 3-(2-Amino-4-pyrimidinyl) -5-Fluoro-2-oxoindole] | 7.5 |
| Nc1nccc(-c2c(O)[nH]c3ccc(Cl)cc23)n1 [Compound 5, 3-(2-Amino-4-pyrimidinyl) -5-Chloro-2-oxoindole] | 8.8 |
| Nc1nccc(-c2c(O)[nH]c3ccc([N+](=O)[O-])cc23)n1 [Compound 6, 3-(2-Amino-4-pyrimidinyl) -5-Nitro-2-oxoindole] | 6.9 |
| COC(=O)c1ccc2c(-c3ccnc(N)n3)c(O)[nH]c2c1 [Compound 7, 3-(2-Amino-4-pyrimidinyl) -2-oxoindole-6-carboxylic acid methyl ester] | 6.8 |
| Nc1nccc(-c2c(O)[nH]c3ccc(F)c(F)c23)n1 [Compound 8, 3-(2-Amino-4-pyrimidinyl)-4,5-difluoro-2-oxoindol] | 7.6 |

Same assay, conditions: 10 nM enzyme, 10 µM ATP, 2 µM histone H1, 40 min incubation; read-out: Cdk5 inhibition pEC50 average (converted)

| SMILES | EC50 |
| --- | --- |
| Cc1cc(-c2c(O)[nH]c3ccccc23)nc(N)n1 [Comparative example, reference compound] | 501 nM |

Target: T2, Human recombinant GSK-3β (Homo sapiens, UniProt P49841)
T2 construct: purchased Millipore
Experiment: GSK-3β assay (luminescent detection of ADP)
Assay type: biochemical
Conditions: 4 nM enzyme, 5 µM ATP, 15 µM substrate peptide, 40 min incubation
Method: as §1
The enzymatic activity of GSK-3β is determined with the same commercial system described above based on the luminescent detection of ADP. Human recombinant GSK-3β (purchased from Millipore) is used as the enzyme source. […] The assay is carried out in the presence of different concentrations of the tested compound at a final 1% (v/v) DMSO concentration.

T2 sequence (P49841 whole entry): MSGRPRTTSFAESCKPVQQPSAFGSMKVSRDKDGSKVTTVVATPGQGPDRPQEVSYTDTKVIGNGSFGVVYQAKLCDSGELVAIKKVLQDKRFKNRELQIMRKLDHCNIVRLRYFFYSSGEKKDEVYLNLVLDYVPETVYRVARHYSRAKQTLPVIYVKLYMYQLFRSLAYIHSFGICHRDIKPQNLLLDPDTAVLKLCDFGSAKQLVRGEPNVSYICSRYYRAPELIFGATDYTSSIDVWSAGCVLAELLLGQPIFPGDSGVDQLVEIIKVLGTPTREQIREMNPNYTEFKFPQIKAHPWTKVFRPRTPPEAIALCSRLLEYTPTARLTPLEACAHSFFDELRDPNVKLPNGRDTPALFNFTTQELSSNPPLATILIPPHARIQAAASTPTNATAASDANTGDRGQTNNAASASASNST

| SMILES | GSK3β inhibition pEC50 average |
| --- | --- |
| Nc1nccc(-c2c(O)[nH]c3ccccc23)n1 [Compound 1, 3-(2-Amino-4-pyrimidinyl)-2-oxoindole] | 6.9 |
| CS(=O)(=O)c1ccc2c(-c3ccnc(N)n3)c(O)[nH]c2c1 [Compound 2, 3-(2-Amino-4-pyrimidinyl) -6-methanesulfonyl-2-oxoindole] | 5.3 |
| Nc1nccc(-c2c(O)[nH]c3ccc(Br)cc23)n1 [Compound 3, 3-(2-Amino-4-pyrimidinyl)-5-Bromo-2-oxoindole] | 7.8 |
| Nc1nccc(-c2c(O)[nH]c3ccc(F)cc23)n1 [Compound 4, 3-(2-Amino-4-pyrimidinyl) -5-Fluoro-2-oxoindole] | 7.5 |
| Nc1nccc(-c2c(O)[nH]c3ccc(Cl)cc23)n1 [Compound 5, 3-(2-Amino-4-pyrimidinyl) -5-Chloro-2-oxoindole] | 7.9 |
| Nc1nccc(-c2c(O)[nH]c3ccc([N+](=O)[O-])cc23)n1 [Compound 6, 3-(2-Amino-4-pyrimidinyl) -5-Nitro-2-oxoindole] | 6.7 |
| COC(=O)c1ccc2c(-c3ccnc(N)n3)c(O)[nH]c2c1 [Compound 7, 3-(2-Amino-4-pyrimidinyl) -2-oxoindole-6-carboxylic acid methyl ester] | 6.6 |
| Nc1nccc(-c2c(O)[nH]c3ccc(F)c(F)c23)n1 [Compound 8, 3-(2-Amino-4-pyrimidinyl)-4,5-difluoro-2-oxoindol] | 7.6 |

Same assay, conditions: 4 nM enzyme, 5 µM ATP, 15 µM substrate peptide, 40 min incubation; read-out: GSK3β inhibition pEC50 average (converted)

| SMILES | EC50 |
| --- | --- |
| Cc1cc(-c2c(O)[nH]c3ccccc23)nc(N)n1 [Comparative example, reference compound] | 398 nM |

Target: T3, Human recombinant CK1ε (Homo sapiens, UniProt P49674)
T3 construct: purchased Life Technologies
Experiment: CK1ε assay (luminescent detection of ADP)
Assay type: biochemical
Conditions: 10 nM enzyme, 50 µM ATP, 50 µM substrate peptide, 40 min incubation
Method: as §1
The enzymatic activity of CK1ε is determined with the same commercial system described above based on the luminescent detection of ADP. Human recombinant CK1ε (purchased from Life Technologies) is used as the enzyme source. The assay is performed in 96-well conical bottom black plates, in a final volume of 12 µl with 10 nM enzyme concentration in 40 mM Tris-HCl pH 7.4, 20 mM MgCl2 and 0.01% bovine serum albumin using 50 µM ATP and 50 µM substrate peptide. The latter is a synthetic peptide provided by AnaSpec (Fremont, CA, USA) under the commercial name "CK1 peptide substrate" and it is based on the sequence of rabbit muscle glycogen synthase with Ser7 phosphorylated (the exact sequence of the peptide is KRRRAL(pS)VASLPGL, where (pS) denotes phospho-Ser). The assay is carried out in the presence of different concentrations of the tested compound at a final 1% (v/v) DMSO concentration.

T3 sequence (P49674 whole entry): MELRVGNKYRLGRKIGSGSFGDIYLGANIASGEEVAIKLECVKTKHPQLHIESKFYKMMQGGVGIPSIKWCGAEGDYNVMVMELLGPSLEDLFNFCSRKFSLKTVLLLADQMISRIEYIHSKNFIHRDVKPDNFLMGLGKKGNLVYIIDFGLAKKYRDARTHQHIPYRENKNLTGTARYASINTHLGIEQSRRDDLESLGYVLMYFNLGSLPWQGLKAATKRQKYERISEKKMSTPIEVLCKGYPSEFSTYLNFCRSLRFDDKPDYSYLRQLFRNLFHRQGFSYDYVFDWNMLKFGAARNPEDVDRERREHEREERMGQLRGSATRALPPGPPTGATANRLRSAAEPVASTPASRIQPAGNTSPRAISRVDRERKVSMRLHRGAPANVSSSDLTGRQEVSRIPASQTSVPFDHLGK

| SMILES | CK1 inhibition pEC50 average |
| --- | --- |
| Nc1nccc(-c2c(O)[nH]c3ccccc23)n1 [Compound 1, 3-(2-Amino-4-pyrimidinyl)-2-oxoindole] | 6.1 |
| CS(=O)(=O)c1ccc2c(-c3ccnc(N)n3)c(O)[nH]c2c1 [Compound 2, 3-(2-Amino-4-pyrimidinyl) -6-methanesulfonyl-2-oxoindole] | 5.4 |
| Nc1nccc(-c2c(O)[nH]c3ccc(Br)cc23)n1 [Compound 3, 3-(2-Amino-4-pyrimidinyl)-5-Bromo-2-oxoindole] | 6.1 |
| Nc1nccc(-c2c(O)[nH]c3ccc(F)cc23)n1 [Compound 4, 3-(2-Amino-4-pyrimidinyl) -5-Fluoro-2-oxoindole] | 6.5 |
| Nc1nccc(-c2c(O)[nH]c3ccc(Cl)cc23)n1 [Compound 5, 3-(2-Amino-4-pyrimidinyl) -5-Chloro-2-oxoindole] | 6.7 |
| Nc1nccc(-c2c(O)[nH]c3ccc([N+](=O)[O-])cc23)n1 [Compound 6, 3-(2-Amino-4-pyrimidinyl) -5-Nitro-2-oxoindole] | 4.7 |
| COC(=O)c1ccc2c(-c3ccnc(N)n3)c(O)[nH]c2c1 [Compound 7, 3-(2-Amino-4-pyrimidinyl) -2-oxoindole-6-carboxylic acid methyl ester] | 5.9 |
| Nc1nccc(-c2c(O)[nH]c3ccc(F)c(F)c23)n1 [Compound 8, 3-(2-Amino-4-pyrimidinyl)-4,5-difluoro-2-oxoindol] | < 4 |

Same assay, conditions: 10 nM enzyme, 50 µM ATP, 50 µM substrate peptide, 40 min incubation; read-out: CK1 inhibition pEC50 average (converted)

| SMILES | EC50 |
| --- | --- |
| Cc1cc(-c2c(O)[nH]c3ccccc23)nc(N)n1 [Comparative example, reference compound] | 3160 nM |

Tested on: phosphorylation at the Ser-396 residue of Tau protein in human neuroblastoma SH-SY5Y cells
Experiment: Cellular assay: phosphorylation at Ser-396 of Tau protein (ELISA)
Assay type: cell-based
Conditions: 16 h incubation with compound, read-out: pSer396-Tau 16h pEC50 average (converted)
Method: The effect of the compounds in cells is determined by monitoring the level of phosphorylation at the Ser-396 residue of Tau protein in human neuroblastoma SH-SY5Y cells. Cells are grown in 96-well plates, 30,000 cells per well in a volume of 100 µl of 1:1 MEM:Ham's F12 medium including 10% (v/v) fetal bovine serum, 100 U/ml penicillin, 100 µg/ml streptomycin and 1% (v/v) 100-fold concentrated commercial stock of non-essential aminoacids (Gibco, Carlsbad, CA, USA), and incubated at 37°C during 24 h. Then, the corresponding amount of test compound is added to the wells to reach the desired concentration in 1% (v/v) DMSO. The system is incubated at 37°C during 16 h and afterwards cells are harvested, washed with phosphate buffer saline and incubated during 30 min on ice with 120 µl per well of "lysis buffer" (10 mM Tris-HCl pH 7.4, 100 mM NaCl, 1 mM EDTA, 2 mM sodium orthovanadate, 1% (v/v) Triton X-100, 10% (v/v) glycerol, 0.1% (w/v) sodium dodecyl sulfate, 0.5 % (w/v) sodium deoxycholate, 4% (v/v) 25-fold concentrated commercial stock of protease inhibitors (Roche, Basel, Switzerland) and 1 mM phenylmethylsulfonyl fluoride). 60 µl of this mixture is then placed in an empty 96-well plate and the levels of Ser-396 phosphorylation are determined using a commercial ELISA kit (Biosource, Carlsbad, CA, USA) following manufacturer's instructions. The levels of phosphrylation are expressed as percentage values after normalizing them to those in untreated cells and those values are used to calculate the pEC50s as described above.

| SMILES | EC50 |
| --- | --- |
| Nc1nccc(-c2c(O)[nH]c3ccc(F)cc23)n1 [Compound 4, 3-(2-Amino-4-pyrimidinyl) -5-Fluoro-2-oxoindole] | 1260 nM |
| Nc1nccc(-c2c(O)[nH]c3ccc(Cl)cc23)n1 [Compound 5, 3-(2-Amino-4-pyrimidinyl) -5-Chloro-2-oxoindole] | 316 nM |
| Nc1nccc(-c2c(O)[nH]c3ccc([N+](=O)[O-])cc23)n1 [Compound 6, 3-(2-Amino-4-pyrimidinyl) -5-Nitro-2-oxoindole] | 10000 nM |
